In patent US12258337B2, “Bicyclic CX3CR1 receptor agonists” (Board of Regents, The University of Texas System, priority 2019, dated 2025):

Assays:
Format in all cases: cell-based
[1] = biological target: T1, hCX3CR1 (Homo sapiens, UniProt P49238); experiment: Ga16 assay, CX3CR1 agonism, Ca2+ sensitive photo-protein readout (FLIPRTETRA); set-up: expressed in transfected cells; stably expresses a Ca2+ sensitive photo-protein; settings: human CX3CR1 cell line
T1 sequence (P49238 1-355): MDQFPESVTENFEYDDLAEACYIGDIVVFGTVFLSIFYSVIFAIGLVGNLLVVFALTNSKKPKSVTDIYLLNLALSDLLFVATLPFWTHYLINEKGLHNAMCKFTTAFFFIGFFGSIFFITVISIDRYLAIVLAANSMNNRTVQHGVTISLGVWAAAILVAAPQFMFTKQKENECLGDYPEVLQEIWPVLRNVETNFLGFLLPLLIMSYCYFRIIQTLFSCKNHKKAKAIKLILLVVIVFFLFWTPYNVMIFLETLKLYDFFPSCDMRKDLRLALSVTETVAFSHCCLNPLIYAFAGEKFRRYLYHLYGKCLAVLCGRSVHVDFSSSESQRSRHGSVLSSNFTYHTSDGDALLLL
Procedure: (§1) Compounds (as well as stereoisomer(s) thereof and/or salt(s) thereof) were tested for CX3CR1 agonism in a cell based assay with fluorescent readout in Agonist Mode in dose response in quadruplicate with intra-plate modality).
(§2) Buffers and reagents. PBS (D-PBS without calcium and magnesium; EuroClone); Trypsin (Trypsin 0.05%, EDTA 0.02% in PBS; EuroClone); DMSO (Sigma); Standard tyrode buffer: in-house solution (130 mM NaCl, 5 mM KCl, 2 mM CaCl2), 1 mM MgCl2, 5 mM NaHCO3, 20 mM HEPES in water at pH 7.4; sterile filtered); Coelenterazine, native (Biosynth); stock 10 mM; Agonist: Recombinant Human Fractalkine (CX3CL1) (PeproTech); stock: 10 μM in standard tyrode buffer+BSA 0.1%; stored at −20° C.
(§3) Cell line. Human (hCX3CR1), mouse (mCX3CR1), and rat (rCX3CR1) were used for the assay.
(§4) Assay protocol. Experiments ere performed in 384 MTP format. Cells were seeded at 7,500 cells/well in 25 μl/well complete growth medium without selection antibiotics in 384-well plates. Twenty-four hours later, cells ere assayed for the response to various compounds using the Ca^2+ sensitive photo-protein stably expressed in the cells as readout.
(§5) The experiment was performed in a 384-well format according to the following procedure: • 24h after seeding, pre-incubate the cells at room temperature for 1 hour. • Then remove the culture medium. • Load cells with 20 μL/well of standard tyrode buffer+10 μM ceolenterazine. • Incubate cell plates for 3 hours at RT. • Inject 10 μL/w of 3× concentrated test compounds and controls in assay buffer at the FLIPRTETRA and monitor the kinetic response over a period of 90 seconds.
(§6) Data from FLIPRTETRA measurements were analyzed with the Genedata Screener© software. The following examples are meant to illustrate, but in no way to limit, the claimed invention.

[2] = biological target: T1, hCX3CR1; experiment: ChAMPion assay (CHO ChAMPion/CX3CR1 K1.6, cAMP/CNG channel, photoprotein luminescence); set-up: expressed in transfected cells; stably expresses a Ca2+ sensitive photo-protein; settings: ChAMPion assay, CHO ChAMPion/CX3CR1 K1.6, Forskolin 3 μM; read-out: hCX3CR1 agonism EC50
Procedure: Buffers and reagents. PBS (D-PBS without calcium and magnesium; EuroClone); Trypsin (Trypsin 0.05%, EDTA 0.02% in PBS; EuroClone); DMSO (Sigma); Tyrode buffer Ca^2+ free: in-house solution (130 mM NaCl, 5 mM KCl, 1 mM MgCl^2, 5 mM NaHCO3, 20 mM HEPES (pH 7.4); sterile filtered and autoclaved); Tyrode buffer 10 mM Ca^2+: in-house solution (130 mM NaCl, 5 mM KCl, 10 mM CaCl2), 1 mM MgCl2, 5 mM NaHCO3, 20 mM HEPES, in water at pH 7.4, sterile filtered); Coelenterazine, native (Biosynth); stock 10 mM; Agonist: Recombinant Human Fractalkine (CX3CL1) (PeproTech); stock: 10 μM in standard Tyrode buffer/BSA 01%; stored at −20° C.
Cell line. The final clone for the hCX3CR1 assay was CHO ChAMPion/CX3CR1 K1.6. ChAMPion technology is based on the co-expression of a Ca^2+ sensitive photoprotein and of a cyclic nucleotide-gated (CNG) channel acting as a cAMP biosensor in a CHO-K1 cell line. CNG channels are non-selective ligand gated cation channels that can be opened by the direct interaction with either cAMP or cGMP, at the intracellular C-terminus site of the channel. Channel opening allows the flux of extracellular calcium into the cell cytoplasm and its transient elevation can be recorded by means of several different calcium indicators. In the chAMPion system, the CNG channel has been modified to display sensitivity to cAMP levels in the physiological range. In addition the calcium influx through the opened channel is immediately detected by the recording of the photoprotein-emitted flash type luminescence signal.
The chAMPion cell line system can monitor the activation of transfected Gαi-coupled receptors, which elicit changes in 3,‘5’-adenosine cyclic monophosphate (cAMP) levels, which in turn is responsible for CNG opening and consequent Ca^2+ influx.
as §4, with “Experiments were” for “Experiments ere”, “at 10,000” for “at 7,500”, “25 μL/well” for “25 μl/well”, “cells were” for “cells ere”
The experiment was performed in a 384-well format according to the following procedure: • 24h after seeding, pre-incubate the cells at room temperature for 1 hour. • Then remove the culture medium. • Load cells with 20 μL/well of Ca^2+ free tyrode buffer+ceolenterazine 5 μM. • Incubate cell plates for 4 hours at RT. • 10 μl/well of 3× concentrated compounds in Ca^2+ free tyrode buffer+Forskolin 9 μM (final Forskolin concentration=3 μM) are applied to the cells (at 10 μl/s). Ten minutes later a second injection is performed: 10 μl/well of Ca^2+ free tyrode buffer+BSA 0.04% (final BSA concentration=0.01%). Twenty minutes later a third injection is performed: 20 μl/well of 10 mM Ca^2+ tyrode buffer (final Ca^2+ concentration was 3.3 mM) and luminescence is recorded for 90 seconds.
(§7) Data from FLIPRTETRA measurements are analyzed with the Genedata Screener© software.

[3] = biological target: T2, mCX3CR1 (Mus musculus, UniProt Q9Z0D9); experiment: Ga16 assay, CX3CR1 agonism, Ca2+ sensitive photo-protein readout (FLIPRTETRA); settings: mouse CX3CR1 cell line
T2 construct: expressed in transfected cells; stably expresses a Ca2+ sensitive photo-protein
T2 sequence (Q9Z0D9 1-354): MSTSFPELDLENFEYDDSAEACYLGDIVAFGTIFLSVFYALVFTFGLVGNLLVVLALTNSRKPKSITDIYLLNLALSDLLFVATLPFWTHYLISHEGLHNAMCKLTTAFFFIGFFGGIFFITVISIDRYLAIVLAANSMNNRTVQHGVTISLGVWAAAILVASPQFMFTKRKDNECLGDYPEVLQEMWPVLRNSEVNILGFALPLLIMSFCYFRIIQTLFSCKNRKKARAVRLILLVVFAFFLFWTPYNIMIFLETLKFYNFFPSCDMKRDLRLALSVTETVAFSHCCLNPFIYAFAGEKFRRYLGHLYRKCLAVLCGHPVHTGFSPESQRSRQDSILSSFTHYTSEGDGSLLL
Procedure: as §1, §2, §3, §4, §5, §6

[4] = biological target: T3, rCX3CR1 (Rattus norvegicus, UniProt P35411); experiment: as above; settings: rat CX3CR1 cell line
T3 construct: expressed in transfected cells; stably expresses a Ca2+ sensitive photo-protein
T3 sequence (P35411 1-354): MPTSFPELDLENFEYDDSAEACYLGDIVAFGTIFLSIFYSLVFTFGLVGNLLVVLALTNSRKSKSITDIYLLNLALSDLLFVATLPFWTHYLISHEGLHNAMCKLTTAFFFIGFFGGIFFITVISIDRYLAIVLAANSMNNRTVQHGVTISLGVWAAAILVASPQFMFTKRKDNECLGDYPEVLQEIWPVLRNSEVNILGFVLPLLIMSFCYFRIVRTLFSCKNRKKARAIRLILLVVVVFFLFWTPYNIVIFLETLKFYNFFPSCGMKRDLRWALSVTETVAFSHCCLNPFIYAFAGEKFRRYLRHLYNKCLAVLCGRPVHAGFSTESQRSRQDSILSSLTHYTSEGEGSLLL
Procedure: as §1, §2, §3, §4, §5, §6

[5] = biological target: T1, hCX3CR1; experiment: Suchi5 assay (HEK/NatClytin/CNG/Suchi5 transiently transfected hCX3CR1, Fluo-8 Ca2+ readout); set-up: expressed in transfected cells; stably expresses a Ca2+ sensitive photo-protein; settings: Suchi5 assay, HEK/NatClytin/CNG/Suchi5 transfected with hCX3CR1; read-out: hCX3CR1 agonism EC50
Procedure: Buffers and reagents. PBS (D-PBS without calcium and magnesium; EuroClone); Trypsin (Trypsin 0.05%, EDTA 0.02% in PBS; EuroClone); Opti-MEM medium (Thermo Fisher); DMSO (Sigma); Standard tyrode buffer: in-house solution (130 mM NaCl, 5 mM KCl, 2 mM CaCl2), 1 mM MgCl2, 5 mM NaHCO3, 20 mM HEPES in water at pH 7.4; sterile filtered); Screen Quest™ Fluo-8 No Wash Calcium Assay Kit (AAt Bioquest®); Lipofectamine® 2000 Reagent (Thermo Fisher); Agonist: Recombinant Human Fractalkine (CX3CL1) (PeproTech); stock: 10 μM in standard Tyrode buffer/BSA 01%; stored at −20° C.
Cell line. The final cell line for CX3CR1-Suchi5 assay is HEK/NatClytin/CNG/Suchi5 transiently transfected hCX3CR1 cDNA. In this cell line native Gαi signaling is switched to Gαq pathway thanks to the overexpression of a Gαiq chimeric G protein (called Suchi5) to direct Gαi activation towards Ca^2+ release for measurement.
Assay protocol. Experiments are performed in 384 MTP format. Transiently transfected cells are seeded at 20,000 cells/well in 25 μl/well Opti-MEM medium without selection antibiotics in 384-well plates. 4-5-hours later 25 μL/well of complete medium with 20% of FBS are added to the cells. Twenty-four hours later, cells are assayed for the response to various compounds using a fluorescent Ca^2+ sensitive dye (FLUO8-No Wash Dye) as readout.
The experiment is performed in a 384-well format according to the following procedure: • 24h after seeding, remove the culture medium. • Load cells with 20 μL/well of 0.5X FLUO-8 No Wash Dye diluted in assay buffer. • Incubate cell plates for 1 hour at RT. • Inject 10 μL/w of 3× concentrated test compounds and controls in assay buffer at the FLIPRTETRA and monitor the kinetic response over a period of 90 seconds.
as §7

| SMILES | EC50 [1] [µM] | EC50 [2] [µM] | EC50 [3] [µM] | EC50 [4] [µM] | EC50 [5] [µM] |
| --- | --- | --- | --- | --- | --- |
| O=C(NCC1(CN2CCCC2)CCC1)c1cc2c(s1)CCCCCCC2 [Example 26, N-[[1-(pyrrolidin-1-ylmethyl)cyclobutyl]methyl]-5,6,7,8,9,10-hexahydro-4H-cyclonona[b]thiophene-2-carboxamide] | 27.3 | 4.3 | 58.1 | 46.7 |  |
| CN(CCO)CC1(CNC(=O)c2cc3c(s2)CCCCCC3)CCCC1 [Example 17, N-[[1-[[2-hydroxyethyl(methyl)amino]methyl]cyclopentyl]methyl]-4,5,6,7,8,9-hexahydrocycloocta[b]thiophene-2-carboxamide] | 11.8 | 1.3 | 18.2 | 15.7 |  |
| O=C(NCC1(CN2CCCC2)Cc2ccccc2C1)c1cc2c(s1)CCCCCC2 [Example 11, N-[[2-(pyrrolidin-1-ylmethyl)-1,3-dihydroinden-2-yl]methyl]-4,5,6,7,8,9-hexahydrocycloocta[b]thiophene-2-carboxamide] | 20.5 | 6.3 | 15.4 | 19.6 |  |
| O=C(NCC1(CN2CCC2)CCCC1)c1cc2c(s1)CCCCCC2 [Example 14, N-[[1-(azetidin-1-ylmethyl)cyclopentyl]methyl]-4,5,6,7,8,9-hexahydrocycloocta[b]thiophene-2-carboxamide] | 9.1 | 1.6 | 15.2 | 9.3 |  |
| CCN(CC)CC(C)(C)CNC(=O)c1cc2c(s1)CCCCCC2 [Example 16, N-[3-(diethylamino)-2,2-dimethylpropyl]-4,5,6,7,8,9-hexahydrocycloocta[b]thiophene-2-carboxamide] | 13.6 | 6.6 | 103 | 19.7 |  |
| CN(C)CC1(CNC(=O)c2cc3c(s2)CCCCCC3)CC(F)(F)C1 [Example 56, N-[[1-[(dimethylamino)methyl]-3,3-difluorocyclobutyl]methyl]-4,5,6,7,8,9-hexahydrocycloocta[b]thiophene-2-carboxamide] | 18.5 |  | 24.9 | 23.9 | 9.6 |
| CC1CCCC1(CNC(=O)c1cc2c(s1)CCCCCC2)CN(C)C (single isomer, unassigned) [Example 60, N-[[1-[(dimethylamino)methyl]-2-methylcyclopentyl]methyl]-4,5,6,7,8,9-hexahydrocycloocta[b]thiophene-2-carboxamide] | 16.8 |  | 89.8 | 18.9 | 10.3 |
| CC1CCCC1(CNC(=O)c1cc2c(s1)CCCCCC2)CN(C)C (single isomer, unassigned) [Example 61, N-[[1-[(dimethylamino)methyl]-2-methylcyclopentyl]methyl]-4,5,6,7,8,9-hexahydrocycloocta[b]thiophene-2-carboxamide] | 13.4 |  | 33.8 | 15.2 | 6.8 |
